In US6380230B1, “Carboxamidothiazole derivatives, preparation, pharmaceutical compositions containing them” (Sanofi-Synthelabo, priority 1997, dated 2002):

Key:
[1] = system: Female Swiss albino CD1 mice; experiment: gastric drainage (charcoal meal) in mice, intraperitoneal administration; format: in vivo; details: intraperitoneally
Protocol: The compounds of the present invention were also studied in vivo, by evaluating their capacity to block gastric drainage in mice.
A study of the agonist effect of the compounds on gastric drainage was carried out as follows. Female Swiss albino CD1 mice (20-25 g) are placed on a solid fast for 18 hours. On the day of the experiment, the products (as a suspension in 1% carboxymethyl cellulose solution or in 0.6% methylcellulose solution) or the corresponding vehicle are administered intraperitoneally, 30 minutes before administering a charcoal meal (0.3 ml per mouse of a suspension in water of 10% charcoal powder, 5% gum arabic and 1% carboxymethyl cellulose or 0.6% methyl cellulose). The mice are sacrificed five minutes later by cervical dislocation, and gastric drainage is defined as the presence of charcoal in the intestine beyond the pyloric sphincter (Eur. J. Pharmacol., 1993, 232, 13-19).

human CCK-A receptor [2] = target: T1, human CCK-A receptor (Homo sapiens, UniProt P32238); experiment: mobilization of intracellular calcium ([Ca++]i, Fura-2) in 3T3 cells expressing the human CCK-A receptor; format: cell-based
T1 construct: expressed in transfected cells; host or cells: 3T3 cells
T1 sequence (P32238 1-428): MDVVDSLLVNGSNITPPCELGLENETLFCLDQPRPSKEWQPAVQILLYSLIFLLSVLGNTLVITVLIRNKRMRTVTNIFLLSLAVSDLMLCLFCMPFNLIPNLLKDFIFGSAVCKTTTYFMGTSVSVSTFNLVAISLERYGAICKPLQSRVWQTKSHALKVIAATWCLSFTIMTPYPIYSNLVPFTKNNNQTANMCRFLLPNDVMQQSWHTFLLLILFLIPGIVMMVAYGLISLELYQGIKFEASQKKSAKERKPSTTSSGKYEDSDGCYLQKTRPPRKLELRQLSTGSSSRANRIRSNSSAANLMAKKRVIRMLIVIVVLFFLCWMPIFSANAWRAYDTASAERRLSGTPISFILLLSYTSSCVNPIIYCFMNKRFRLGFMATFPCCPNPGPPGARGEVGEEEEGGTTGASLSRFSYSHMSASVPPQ
Protocol: The calcium concentration [Ca^++]i is evaluated with Fura-2 as fluorescent probe, by the double excitation wavelength method. The ratio of the fluorescence emitted at two wavelengths gives the concentration of [Ca^++]i after calibration (Grynkiewicz G. et al., J. Biol. Chem., 1985, 260, 3440-3450).

human CCK-A receptor [3] = target: T1, human CCK-A receptor; experiment: displacement of [125I]-CCK from 3T3 cells expressing the human CCK-A recombinant receptor; format: binding; details: read-out: affinity for the human CCK-A receptor (IC50)
human CCK-B receptor = target: T2, human CCK-B receptor (Homo sapiens, UniProt P32239); experiment: in vitro binding to the human CCK-B receptor; details: read-out: affinity for the human CCK-B receptor (IC50)
T2 sequence (P32239 1-447): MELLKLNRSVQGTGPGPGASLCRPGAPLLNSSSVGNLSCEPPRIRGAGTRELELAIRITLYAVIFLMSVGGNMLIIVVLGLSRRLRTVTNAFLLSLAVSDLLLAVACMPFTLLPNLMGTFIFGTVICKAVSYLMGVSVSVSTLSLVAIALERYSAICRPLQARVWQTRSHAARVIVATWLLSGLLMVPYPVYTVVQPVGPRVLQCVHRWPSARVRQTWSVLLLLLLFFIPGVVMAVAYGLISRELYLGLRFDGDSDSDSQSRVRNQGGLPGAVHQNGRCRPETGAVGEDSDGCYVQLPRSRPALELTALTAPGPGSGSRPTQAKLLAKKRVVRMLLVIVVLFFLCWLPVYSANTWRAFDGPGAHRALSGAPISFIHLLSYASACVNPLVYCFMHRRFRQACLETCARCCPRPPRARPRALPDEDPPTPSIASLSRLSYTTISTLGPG

COc1cc(-c2nc(NC(=O)c3cc4cc(C)cc(C)c4n3CC(=O)O)sc2CCC2CCCCC2)c(OC)cc1Cl.O=C(O)C(F)(F)F [Example 5, 2-(4-(4-Chloro-2,5-dimethoxyphenyl)-5-(2-cyclohexylethyl)-2-thiazolylcarbamoyl)-5,7-dimethyl-1-indoleacetic acid trifluoroacetic acid.]
ED50 on gastric drainage [1]: 1.9 µg/kg | effect on gastric drainage [1]: completely inhibits gastric drainage | agonist behaviour on intracellular calcium relative to CCK (human CCK-A receptor [2]; increase to the same level as CCK itself): total agonist | EC50 (human CCK-A receptor [2]; read-out: EC50 (effective concentration which induces 50% of the effect of CCK) for increase in intracellular calcium concentration, 3T3 cells expressing human CCK-A receptor): 1.27 nM | IC50 (human CCK-A receptor [3]): 0.56 nM | IC50 (human CCK-B receptor): 162 nM
